Source: patent publication US20030225002A1, “Co-therapy for the treatment of migraine comprising anticonvulsant derivatives and anti-migraine agents” (priority 2002, published 2003)

Experiments:
subjects with migraine [1] = assay: Clinical Study Trials #1 and #2: severity of migraine headaches, topiramate with triptan rescue therapy; type: in vivo, human; settings: for Severity of Migraine Headaches, Baseline / Severity of Migraine Headaches, Double-Blind: triptan rescue therapy; for Severity of Migraine Headaches, Double-Blind: Double-Blind Phase; for Severity of Migraine Headaches, Difference: Double-Blind minus Baseline
Description: (§1) The primary objective of these studies was to evaluate the safety and efficacy of three doses of topiramate (50, 100, and 200 mg/day) versus placebo in the prophylaxis of migraine based on the change in the monthly (28 day) migraine period rate from the Prospective Baselin,e Period to the Double-Blind Phase. The secondary objectives for the studies were to assess dose response relationship, and to evaluate the effect of prophylactic treatment with topiramate (50, 100, and 200 mg/day) versus placebo on Health-Related Quality of Life (HRQL).
(§2) The studies were randomized, double-blind, placebo-controlled, parallel-group, multicenter studies. Male and female subjects were randomized equally to the four treatment groups.
(§3) While the IHS criteria was used to establish the diagnosis at study entry, the evaluation of efficacy was based on migraine periods. A migraine period was defined as the length of time between the onset and cessation of painful migraine symptoms. This period could last up to, but no longer than, 24 hours. If the painful symptoms persisted more than 24 hours after their initial onset, this was considered to be a new, distinct migraine period. If symptoms recurred within 24 hours of the initial onset, this was considered part of the same, initial period.
(§4) Subjects who completed the Baseline Phase and met the entry criteria were randomized to one of four treatment groups: 50 mg/day topiramate, 100 mg/day topiramate, 200 mg/day topiramate or placebo. The Double-Blind Phase had two periods: Titration and Maintenance, which are described in more detail below.
(§5) The Titration Period immediately followed the Baseline Phase and extended for eight weeks (56 days). During this period, subjects randomized to topiramate were started at a dose of 25 mg/day and the daily dose was increased by 25 mg weekly until they reach their assigned dose (or maximum tolerated dose, whichever is less). From the third week of Titration until the end of the Maintenance Period, a maximum of two dose level reductions were permitted for unacceptable tolerability problems. If the subject was still in the Titration Period after a dose reduction, rechallenge may have occurred in an attempt to achieve the subject's assigned dose, and, if unsuccessful, the dose may have been reduced again to the original reduced dose. Subjects who had their study medication dose decreased twice, and were still experiencing unacceptable tolerability problems that warranted additional dose reductions, exited the study. Clinic visits occurred on Day 29 (Visit 3) and Day 57 (Visit 4/End of Titration).
(§6) During this 18-week period, the subjects remained on the dose of study medication reached at the end of the Titration Period (the assigned dose or the maximum tolerated dose). If the subject experienced unacceptable tolerability problems, the dose was reduced, only one dose reduction was permitted in the maintenance. No rechallenge was permitted during the Maintenance Period, so that subject continued on the reduced dose for the remainder of the period. Subjects who already had their study medication dose decreased by two levels, and were still experiencing unacceptable tolerability problems that warranted additional dose reductions exited the study. Clinic visits occurred on Day 85 (Visit 5), Day 113 (Visit 6), Day 141 (Visit 7) and Day 183 (Visit 8/ Double-Blind Final Visit or Early Withdrawal).
(§7) Subjects were randomized to one of four treatment groups: a) placebo, b) 50 mg/day topiramate, c) 100 mg/day topiramate, or d) 200 mg/day topiramate. All subjects received study medication in a b.i.d. dosing regimen except during the first week of Titration, during which they took single evening doses.
(§8) In keeping with good pain management practices, subjects enrolled in these studies were permitted to take acute abortive/rescue medication as indicated for the treatment of pain during migraine/headache attacks. […]

subjects with migraine [2] = assay: Clinical Study Trials #1 and #2: duration of migraine headaches, topiramate with triptan rescue therapy; type: in vivo, human; settings: for Duration of Migraine Headaches, Baseline / Duration of Migraine Headaches, Double-Blind: triptan rescue therapy; for Duration of Migraine Headaches, Double-Blind: Double-Blind Phase; for Duration of Migraine Headaches, Difference: Double-Blind minus Baseline
Description: as §1, §2, §3, §4, §5, §6, §7, §8

subjects with migraine [3] = assay: Clinical Study Trials #1 and #2: severity of nausea associated with migraine headaches; type: in vivo, human; settings: for Severity of Nausea Associated Migraine Headaches, Baseline / Severity of Nausea Associated Migraine Headaches, Double-Blind / Severity of Nausea Associated Migraine Headaches, Difference: scale 0 to 3; for Severity of Nausea Associated Migraine Headaches, Baseline / Severity of Nausea Associated Migraine Headaches, Double-Blind: triptan rescue therapy; for Severity of Nausea Associated Migraine Headaches, Double-Blind: Double-Blind Phase; for Severity of Nausea Associated Migraine Headaches, Difference: Double-Blind minus Baseline
Description: as §1, §2, §3, §4, §5, §6, §7, §8

subjects with migraine [4] = assay: Clinical Study Trials #1 and #2: severity of photophobia associated with migraine headaches; type: in vivo, human; settings: for Severity of Photophobia Associated Migraine Headaches, Baseline / Severity of Photophobia Associated Migraine Headaches, Double-Blind / Severity of Photophobia Associated Migraine Headaches, Difference: scale 0 to 3; for Severity of Photophobia Associated Migraine Headaches, Baseline / Severity of Photophobia Associated Migraine Headaches, Double-Blind: triptan rescue therapy; for Severity of Photophobia Associated Migraine Headaches, Double-Blind: Double-Blind Phase; for Severity of Photophobia Associated Migraine Headaches, Difference: Double-Blind minus Baseline
Description: as §1, §2, §3, §4, §5, §6, §7, §8

[5] = test system: persistent daily headache with migraine features; assay: Case Study 1: persistent daily headache with migraine features; type: in vivo, human; settings: topiramate 75 mg/day with INDERAL at 20 mg/day
Source text: The patient was a person with persistent daily headache with migraine features.

[6] = test system: refractory migraine (migraine without aura); assay: Case Study 2: refractory migraine without aura; type: in vivo, human; settings: 75 mg/day topiramate, 20 mg/day CORGARD and 20 mg/day CELEXA
Description: The patient was a person with a lifelong history of refractory migraine (migraine without aura), averaging 8 migraines per month. […] The patient was started on topiramate at 25 mg/day, with dosage increasing to 75 mg/day. Simultaneously, the beta-blocker, CORGARD dosage was decreased to 20 mg/day, with CELEXA at 20 mg/day also continued.

[7] = test system: simple and complex partial seizures and secondarily generalized seizures; settings: clinical trials of human epilepsy; cited from earlier work
seizures = settings: several rodent models of epilepsy; cited from earlier work
kindled epilepsy = settings: animal model of kindled epilepsy; cited from earlier work

## CC1(C)O[C@@H]2[C@@H](CO[C@@]3(COS(N)(=O)=O)OC(C)(C)O[C@@H]23)O1 [topiramate, 2,3:4,5-bis-O-(1-methylethylidene)-β-D-fructopyranose sulfamate]
Subjects with migraine [1]; TPM 50 mg, scale 0 to 3 (0=none, 3=severe)
  Severity of Migraine Headaches, Baseline: 2.32
Subjects with migraine [1]; TPM 50 mg, scale 0 to 3
  Severity of Migraine Headaches, Double-Blind: 2.18
  Severity of Migraine Headaches, Difference: −0.13
Subjects with migraine [1]; TPM 100 mg, scale 0 to 3
  Severity of Migraine Headaches, Baseline: 2.33
  Severity of Migraine Headaches, Double-Blind: 2.14
  Severity of Migraine Headaches, Difference: −0.19
Subjects with migraine [1]; TPM 200 mg, scale 0 to 3
  Severity of Migraine Headaches, Baseline: 2.26
  Severity of Migraine Headaches, Double-Blind: 2.16
  Severity of Migraine Headaches, Difference: −0.10
Subjects with migraine [1]; patient group taking 100 mg topiramate
  Statistical significance of effect on severity of migraine headaches (in words): Statistically significant results
Subjects with migraine [1]; topiramate in combination with triptan rescue medication vs rescue medications alone, 50, 100 and 200 mg
  Effect on severity of migraine headaches (in words): decrease in the severity of migraine headaches
Subjects with migraine [2]; 200 mg topiramate treatment
  Effect on duration of headaches (in words): duration of headaches increased
Subjects with migraine [2]; TPM 50 mg
  Duration of Migraine Headaches, Baseline: 12.77 h
  Duration of Migraine Headaches, Double-Blind: 11.60 h
  Duration of Migraine Headaches, Difference: -1.17 h
Subjects with migraine [2]; TPM 100 mg
  Duration of Migraine Headaches, Baseline: 14.75 h
  Duration of Migraine Headaches, Double-Blind: 13.17 h
  Duration of Migraine Headaches, Difference: -1.59 h
Subjects with migraine [2]; TPM 200 mg
  Duration of Migraine Headaches, Baseline: 10.84 h
  Duration of Migraine Headaches, Double-Blind: 12.05 h
  Duration of Migraine Headaches, Difference: +1.21 hours
Subjects with migraine [2]; topiramate with triptan rescue medications, groups taking 50 mg and 100 mg
  Effect on duration of a migraine headache (in words): numerically measurable decrease in the duration of a migraine headache
Subjects with migraine [3]; TPM 50 mg
  Severity of Nausea Associated Migraine Headaches, Baseline: 1.17
  Severity of Nausea Associated Migraine Headaches, Double-Blind: 1.17
  Severity of Nausea Associated Migraine Headaches, Difference: −0.01
Subjects with migraine [3]; TPM 100 mg
  Severity of Nausea Associated Migraine Headaches, Baseline: 1.22
  Severity of Nausea Associated Migraine Headaches, Double-Blind: 1.12
  Severity of Nausea Associated Migraine Headaches, Difference: −0.10
Subjects with migraine [3]; TPM 200 mg
  Severity of Nausea Associated Migraine Headaches, Baseline: 1.12
  Severity of Nausea Associated Migraine Headaches, Double-Blind: 1.09
  Severity of Nausea Associated Migraine Headaches, Difference: −0.03
Subjects with migraine [3]; patients taking 100 mg topiramate
  Statistical significance of effect on severity of nausea (in words): Statistically significant differences in the severity of nausea
Subjects with migraine [3]; topiramate with triptan class rescue medications, measurable at 100 mg and 200 mg
  Effect on severity of nausea associated with migraine headaches (in words): decrease in the severity of nausea
Subjects with migraine [4]; TPM 50 mg
  Severity of Photophobia Associated Migraine Headaches, Baseline: 1.83
  Severity of Photophobia Associated Migraine Headaches, Double-Blind: 1.68
  Severity of Photophobia Associated Migraine Headaches, Difference: −0.14
Subjects with migraine [4]; TPM 100 mg
  Severity of Photophobia Associated Migraine Headaches, Baseline: 1.77
  Severity of Photophobia Associated Migraine Headaches, Double-Blind: 1.58
  Severity of Photophobia Associated Migraine Headaches, Difference: −0.19
Subjects with migraine [4]; TPM 200 mg
  Severity of Photophobia Associated Migraine Headaches, Baseline: 1.62
  Severity of Photophobia Associated Migraine Headaches, Double-Blind: 1.57
  Severity of Photophobia Associated Migraine Headaches, Difference: −0.05
Subjects with migraine [4]; patients taking 100 mg topiramate in Study 1
  Statistical significance of effect, text under Table 4 (in words): Statistically significant differences in the severity of nausea
Subjects with migraine [4]; topiramate with triptan rescue medication vs triptan rescue alone, measurable at 50 mg and 100 mg
  Effect on severity of associated photophobia (in words): decreased the severity of associated photophobia
[5]
  Effect on daily headaches: significant improvement and resolution of the daily headaches
  Migraine headache frequency on treatment: approximately one per week
[6]
  Headache frequency: significant decrease in headache frequency
  Headache-free time: no headache for up to four weeks
[7]
  Efficacy in treating simple and complex partial seizures and secondarily generalized seizures: effective as adjunctive therapy or as monotherapy
seizures
  Block of seizures: effectively block seizures
Kindled epilepsy
  Block of seizures: effectively block seizures
